Target: T1, full-length beta-Catenin (Uniprot ID P35222) (Homo sapiens, UniProt P35222)
T1 construct: 10 nM full-length beta-Catenin (Uniprot ID P35222)
T1 sequence (P35222 1-781): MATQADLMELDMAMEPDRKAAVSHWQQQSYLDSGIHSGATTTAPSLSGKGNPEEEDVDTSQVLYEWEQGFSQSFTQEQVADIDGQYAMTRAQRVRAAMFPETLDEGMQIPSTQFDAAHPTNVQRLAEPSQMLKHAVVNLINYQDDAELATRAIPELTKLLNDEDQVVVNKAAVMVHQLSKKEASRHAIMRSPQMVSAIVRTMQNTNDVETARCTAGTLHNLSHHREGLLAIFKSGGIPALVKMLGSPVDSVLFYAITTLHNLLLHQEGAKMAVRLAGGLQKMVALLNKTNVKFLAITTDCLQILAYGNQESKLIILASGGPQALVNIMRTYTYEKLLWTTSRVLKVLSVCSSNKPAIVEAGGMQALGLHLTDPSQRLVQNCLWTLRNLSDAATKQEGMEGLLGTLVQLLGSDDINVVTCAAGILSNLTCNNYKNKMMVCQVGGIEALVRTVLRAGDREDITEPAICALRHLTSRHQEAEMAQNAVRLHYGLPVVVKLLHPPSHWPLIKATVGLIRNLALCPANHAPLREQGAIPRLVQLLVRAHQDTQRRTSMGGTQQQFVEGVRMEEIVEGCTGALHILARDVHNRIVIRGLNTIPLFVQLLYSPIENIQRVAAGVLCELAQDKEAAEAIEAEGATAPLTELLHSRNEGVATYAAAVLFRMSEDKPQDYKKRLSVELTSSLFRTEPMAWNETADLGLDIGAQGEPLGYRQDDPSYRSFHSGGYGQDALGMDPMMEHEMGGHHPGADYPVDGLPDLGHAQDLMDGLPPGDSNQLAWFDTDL
Assay: Fluorescence polarization IC50 (beta-catenin / 5FAM-TCF4 10-53 competition)
Assay type: binding
Conditions: fluorescence polarization; read-out: beta-Catenin FP IC50

**Q.** With `CC(=O)N1CCC[C@]12CC=CCCCC1(CCCC=CCCCOC(=O)N3CC[C@@](C(=O)N[C@@H](Cc4ccccc4)C(=O)N[C@@H](Cc4csc5ccccc45)C(=O)N[C@@H](CCC(N)=O)C(N)=O)(C3)NC(=O)[C@H](CC(C)C)NC(=O)[C@H](Cc3ccccc3)NC(=O)[C@H](C)NC(=O)[C@H](C)NC(=O)[C@H](CCC(N)=O)NC(=O)[C@H](CC(=O)O)NC1=O)NC(=O)[C@H](CC(C)(C)C)NC(=O)[C@H](CCO)NC2=O` (stereo partly drawn) [I-2443, Ac-PL3-Hse-Npg-B5-Asp-Gln-Ala-Ala-Phe-Leu-PyrS2-Phe-BztA-Gln-NH2] as the compound, how does the IC50 read?
**A.** 6670 nM

**Q.** For `CC(=O)N1CCC[C@]12CC=CCCCC1(CCCC=CCCCOC(=O)N3CC[C@@](C(=O)N[C@@H](Cc4ccccc4)C(=O)N[C@@H](Cc4csc5ccccc45)C(=O)N[C@@H](CCC(N)=O)C(N)=O)(C3)NC(=O)[C@H](CC(C)C)NC(=O)[C@H](Cc3ccccc3)NC(=O)[C@H](C)NC(=O)[C@H](CCCCNC(C)C)NC(=O)[C@H](CCCCN)NC(=O)[C@H](CC(=O)O)NC1=O)NC(=O)[C@H](CC1CCCCC1)NC(=O)[C@H](CC(N)=O)NC2=O` (stereo partly drawn) [I-2347, Ac-PL3-Asn-Cha-B5-Asp-Lys-iPrLys-Ala-Phe-Leu-PyrS2-Phe-BztA-Gln-NH2], which IC50 is on record?
**A.** 5630 nM

**Q.** For `CC(=O)N1CCC[C@]12CC=CCCCC1(CCCC=CCCCOC(=O)N3CC[C@@](C(=O)N[C@@H](Cc4ccccc4)C(=O)N[C@@H](Cc4csc5ccccc45)C(=O)N[C@@H](CCC(N)=O)C(N)=O)(C3)NC(=O)[C@H](Cc3c[nH]c4ccccc34)NC(=O)[C@H](Cc3ccccc3)NC(=O)[C@H](C)NC(=O)[C@H](CCCCNC(C)C)NC(=O)[C@H]([C@@H](C)O)NC(=O)[C@H](CC(=O)O)NC1=O)NC(=O)[C@H](CC(C)(C)C)NC(=O)[C@H](CC(N)=O)NC2=O` (stereo partly drawn) [I-1600, Ac-PL3-Asn-Npg-B5-Asp-Thr-iPrLys-Ala-Phe-Trp-PyrS2-Phe-BztA-Gln-NH2], which IC50 is on record?
**A.** 4290 nM

**Q.** How did the IC50 turn out when `CC(=O)N1CCC[C@]12CC=CCCCC1(CCCC=CCCCOC(=O)N3CC[C@@](C(=O)N[C@@H](Cc4ccccc4)C(=O)N[C@@H](Cc4csc5ccccc45)C(=O)N[C@@H](CCC(N)=O)C(N)=O)(C3)NC(=O)[C@H](CC(C)C)NC(=O)[C@H](Cc3ccccc3)NC(=O)[C@H](C)NC(=O)[C@H](CCCCNC(C)C)NC(=O)[C@H](CCC(N)=O)NC(=O)[C@H](CC(=O)O)NC1=O)NC(=O)[C@H](CC1CCCCC1)NC(=O)[C@H](CCO)NC2=O` (stereo partly drawn) [I-2353, Ac-PL3-Hse-Cha-B5-Asp-Gln-iPrLys-Ala-Phe-Leu-PyrS2-Phe-BztA-Gln-NH2] was run?
**A.** 2760 nM

**Q.** `CC(=O)N1CCC[C@]12CC=CCCCC1(CCCC=CCCCOC(=O)N3CC[C@@](C(=O)N[C@@H](Cc4ccccc4)C(=O)N[C@@H](Cc4csc5ccccc45)C(=O)N[C@@H](CCC(N)=O)C(N)=O)(C3)NC(=O)[C@H](CO)NC(=O)[C@H](Cc3ccccc3)NC(=O)[C@H](C)NC(=O)[C@H](CCCCNC(C)C)NC(=O)[C@H]([C@@H](C)O)NC(=O)[C@H](CC(=O)O)NC1=O)NC(=O)[C@H](CC(C)(C)C)NC(=O)[C@H](CC(N)=O)NC2=O` (stereo partly drawn) [I-1601, Ac-PL3-Asn-Npg-B5-Asp-Thr-iPrLys-Ala-Phe-Ser-PyrS2-Phe-BztA-Gln-NH2] was tested. Which IC50 did it give?
**A.** 2020 nM

**Q.** Which IC50 does the source give for `CC(=O)N1CCC[C@]12CC=CCCCC1(CCCC=CCCCOC(=O)N3CC[C@@](C(=O)N[C@@H](Cc4ccsc4)C(=O)N[C@@H](Cc4csc5ccccc45)C(=O)N[C@@H](CCC(N)=O)C(N)=O)(C3)NC(=O)[C@H](CC(C)C)NC(=O)[C@H](Cc3ccccc3)NC(=O)[C@H](C)NC(=O)[C@H](C)NC(=O)[C@H](Cc3c(F)c(F)c(F)c(F)c3F)NC(=O)[C@H](CC(=O)O)NC1=O)NC(=O)[C@H](CC(C)(C)C)NC(=O)[C@H](CC(=O)O)NC2=O` (stereo partly drawn) [I-1792, Ac-PL3-Asp-Npg-B5-Asp-Pff-Ala-Ala-Phe-Leu-PyrS2-3Thi-BztA-Gln-NH2] here?
**A.** 935 nM

**Q.** How did the IC50 turn out when `CC(=O)N1CCC[C@]12CC=CCCCC1(CCCC=CCCCOC(=O)N3CC[C@@](C(=O)N[C@@H](Cc4ccsc4)C(=O)N[C@@H](Cc4csc5ccccc45)C(=O)N[C@@H](CCC(N)=O)C(N)=O)(C3)NC(=O)[C@H](CC(N)=O)NC(=O)[C@H](Cc3ccccc3)NC(=O)[C@H](C)NC(=O)[C@H](C)NC(=O)[C@H](CCCNC(=N)N)NC(=O)[C@H](CC(N)=O)NC1=O)NC(=O)[C@H](CC(C)(C)C)NC(=O)[C@H](CC(=O)O)NC2=O` (stereo partly drawn) [I-1892, Ac-PL3-Asp-Npg-B5-Asn-Arg-Ala-Ala-Phe-Asn-PyrS2-3Thi-BztA-Gln-NH2] was run?
**A.** 1420 nM

**Q.** With `CC(=O)N1CCC[C@]12CC=CCCCC1(CCCC=CCCCOC(=O)N3CC[C@@](C(=O)N[C@@H](Cc4ccsc4)C(=O)N[C@@H](Cc4csc5ccccc45)C(=O)N[C@@H](CCC(N)=O)C(=O)N[C@@H](CCCCNC(=O)CC[C@@H](C)[C@H]4CC[C@H]5[C@@H]6CC[C@@H]7C[C@H](O)CC[C@]7(C)[C@H]6CC[C@]45C)C(N)=O)(C3)NC(=O)[C@H](CC(C)C)NC(=O)[C@H](Cc3ccccc3)NC(=O)[C@H](C)NC(=O)[C@H](C)NC(=O)[C@H](CC(=O)O)NC(=O)[C@H](CC(=O)O)NC1=O)NC(=O)[C@H](CC(C)(C)C)NC(=O)[C@H](CC(=O)O)NC2=O` (stereo partly drawn) [I-1477, Ac-PL3-Asp-Npg-B5-Asp-Asp-Ala-Ala-Phe-Leu-PyrS2-3Thi-BztA-Gln-[lithocholate]-Lys-NH2] as the compound, how does the IC50 read?
**A.** 148 nM

**Q.** `CC(=O)N1CCC[C@]12CC=CCCCC1(CCCC=CCCCOC(=O)N3CC[C@@](C(=O)N[C@@H](Cc4ccccc4C(F)(F)F)C(=O)N[C@@H](Cc4csc5ccccc45)C(=O)N[C@@H](C)C(N)=O)(C3)NC(=O)[C@H](CC(C)C)NC(=O)[C@H](Cc3ccccc3)NC(=O)[C@@H](C)NC(=O)[C@H](C)NC(=O)[C@H](Cc3cccc(C(=O)O)c3)NC(=O)[C@H](CC(=O)O)NC1=O)NC(=O)[C@H](CC(C)(C)C)NC(=O)[C@H](CC(=O)O)NC2=O` (stereo partly drawn) [I-2099, Ac-PL3-Asp-Npg-B5-Asp-3COOHF-Ala-dAla-Phe-Leu-PyrS2-2F3MeF-BztA-Ala-NH2] was tested. Which IC50 did it give?
**A.** 325 nM

**Q.** Which IC50 does the source give for `CC(=O)N1CCC[C@]12CC=CCCCC1(CCCC=CCCCOC(=O)N3CC[C@@](C(=O)N[C@@H](Cc4ccccc4Cl)C(=O)N[C@@H](Cc4csc5ccccc45)C(=O)N[C@@H](CCC(N)=O)C(N)=O)(C3)NC(=O)[C@H]([C@@H](C)O)NC(=O)[C@H](Cc3ccccc3)NC(=O)[C@H](C)NC(=O)[C@H](C)NC(=O)[C@H](CN(CC(=O)O)CC(F)(F)F)NC(=O)[C@H](CC(=O)O)NC1=O)NC(=O)[C@H](CC(C)(C)C)NC(=O)[C@H](CC(=O)O)NC2=O` (stereo partly drawn) [I-1463, Ac-PL3-Asp-Npg-B5-Asp-TfeGA-Ala-Ala-Phe-Thr-PyrS2-2C1F-BztA-Gln-NH2] here?
**A.** 18 nM

**Q.** How did the IC50 turn out when `CC(=O)N1CCC[C@]12CC=CCCCC1(CCCC=CCCCOC(=O)N3CC[C@@](C(=O)N[C@@H](Cc4ccsc4)C(=O)N[C@@H](Cc4csc5ccccc45)C(=O)N[C@@H](CCC(N)=O)C(N)=O)(C3)NC(=O)[C@H](CC(N)=O)NC(=O)[C@H](Cc3ccccc3)NC(=O)[C@H](C)NC(=O)[C@H](CCCCNC(C)C)NC(=O)[C@H]([C@@H](C)O)NC(=O)[C@H](CC(N)=O)NC1=O)NC(=O)[C@H](CC(C)(C)C)NC(=O)[C@H](CC(=O)O)NC2=O` (stereo partly drawn) [I-2004, Ac-PL3-Asp-Npg-B5-Asn-Thr-iPrLys-Ala-Phe-Asn-PyrS2-3Thi-BztA-Gln-NH2] was run?
**A.** 227 nM

**Q.** Which IC50 does the source give for `CC(=O)N1CCC[C@]12CC=CCCC1(CCC=CCCCCOC(=O)N3CC[C@@](C(=O)N[C@@H](Cc4ccsc4)C(=O)N[C@@H](Cc4csc5ccccc45)C(=O)N[C@@H](CCC(N)=O)C(N)=O)(C3)NC(=O)[C@H](CC(C)C)NC(=O)[C@H](Cc3ccccc3)NC(=O)[C@H](C)NC(=O)[C@H](C)NC(=O)[C@H](CC(=O)O)NC(=O)[C@H](CC(=O)O)NC1=O)NC(=O)[C@H](CC(C)(C)C)NC(=O)[C@H](CC(=O)O)NC2=O` (stereo partly drawn) [I-1973, Ac-PL3-Asp-Npg-B4-Asp-Asp-Ala-Ala-Phe-Leu-PyrS3-3Thi-BztA-Gln-NH2] here?
**A.** 797 nM

**Q.** Which IC50 does the source give for `CC(=O)N1CCC[C@]12CC=CCCCC1(CCCC=CCCCCCC[C@@](C)(C(=O)N[C@@H](Cc3ccsc3)C(=O)N[C@@H](Cc3csc4ccccc34)C(=O)N[C@@H](CCC(N)=O)C(N)=O)NC(=O)[C@H](CC(N)=O)NC(=O)[C@H](Cc3ccccc3)NC(=O)[C@H](C)NC(=O)[C@H](C)NC(=O)[C@H]([C@@H](C)O)NC(=O)[C@H](CC(N)=O)NC1=O)NC(=O)[C@H](CC(C)(C)C)NC(=O)[C@H](CC(=O)O)NC2=O` (stereo partly drawn) [I-1617, Ac-PL3-Asp-Npg-B5-Asn-Thr-Ala-Ala-Phe-Asn-S8-3Thi-BztA-Gln-NH2] here?
**A.** 759 nM

**Q.** `CC(=O)N1CCC[C@]12CC=CCCCC1(CCCC=CCCCOC(=O)N3CC[C@@](C(=O)N[C@@H](Cc4cccs4)C(=O)N[C@@H](Cc4csc5ccccc45)C(=O)N[C@@H](CCC(N)=O)C(N)=O)(C3)NC(=O)[C@H](CC(N)=O)NC(=O)[C@H](Cc3ccccc3)NC(=O)[C@H](C)NC(=O)[C@H](C)NC(=O)[C@H]([C@@H](C)O)NC(=O)[C@H](CC(N)=O)NC1=O)NC(=O)[C@H](CC(C)(C)C)NC(=O)[C@H](CC(=O)O)NC2=O` (stereo partly drawn) [I-1736, Ac-PL3-Asp-Npg-B5-Asn-Thr-Ala-Ala-Phe-Asn-PyrS2-2Thi-BztA-Gln-NH2] was tested. Which IC50 did it give?
**A.** 458 nM
